The text below walks through data of US9133257B2, “Antimicrobial peptides and derived metapeptides” (priority 1998, dated 2015).

In data set [1] the test system is Candida Krusei ATCC 32672. More on the design: key: R, resistant; S, sensitive. As to conditions: control strain ATCC 32672; cited from earlier work.
In data set [2] the test system is Candida Lusitaniae ATCC 42720. More on the design: key: R, resistant; S, sensitive. As to conditions: control strain ATCC 42720; cited from earlier work.
Data set [3] deals with Candida Albicans ATCC 36082. More on the design: key: R, resistant; S, sensitive. As to conditions: control strain ATCC 36082; cited from earlier work.
Data set [4] relates to Staphylococus Aureus ATCC 27217. On the set-up: key: R, resistant; S, sensitive. The note with it: control strain ATCC 27217; cited from earlier work.
Data set [5] concerns Enterococcus Faecalis ATCC 47707. More on the design: key: R, resistant; S, sensitive. The note with it: control strain ATCC 47707; cited from earlier work.
Data set [6] relates to Escherichia coli ATCC 43827. More on the design: key: R, resistant; S, sensitive. The note with it: control strain ATCC 43827; cited from earlier work.
The subject of data set [7] is Streptococcus pneumonia ATCC 35088. More on the design: key: R, resistant; S, sensitive. The note with it: control strain ATCC 35088; cited from earlier work.
For data set [8], the system named is Pseudomonas aeruginosa ATCC 17468. More on the design: key: R, resistant; S, sensitive. The note with it: control strain ATCC 17468; cited from earlier work.
For data set [9], the system named is a spectrum of pathogens. Description: antimicrobial spectra in vitro (radial diffusion assay).
The subject of data set [10] is relevant pathogens. Description: microbicidal activity in vitro at pH 5.5 vs 7.2. It is filed as cell-based. The source says: Our preliminary data provide a basis for our central discovery that PMPs have specific, independent determinants responsible for direct antimicrobial activities and potentiation of neutrophil antimicrobial functions. We have shown that these determinants can be isolated, optimized, and utilized to design novel mosaic peptides with selective antimicrobial properties. With a goal of designing novel therapeutics that have potent and selective antimicrobial functions and low toxicity, optimizing the activities of the distinct structural determinants in such peptides is essential.
Controls contain buffer alone or non-antimicrobial proteins and organism as above. Mixtures are incubated at 37° C. for up to 48 hours, after which aliquots are quantitatively cultured and incubated for 24 to 48 hours. Killing is expressed as decrease in logarithm10 surviving CFU/ml. The limit of sensitivity in microbicidal assays is considered to be a 1 log reduction in viable cells.

Data set [11] has as its system S. aureus strain 6850. Description: flow cytometry of membrane depolarization (DiOC5), permeabilization (PI) and killing, PMP-susceptible strain. The format is cell-based. From the text:
(§1) Our recent studies have provided new evidence that PMPs differ in mechanisms of action from those of other antimicrobial peptides. We used flow cytometry to study the mechanisms of action of PMPs against S. aureus strain pair 6850 (PMP^S) and JB-1 (PMP^R) in vitro. Strain JB-1 is a menadione auxotroph of parent strain 6850, and has a decreased transcytoplasmic membrane potential (ΔΨ). We used the fluorescent probes dioxycarbocyanine (DiOC5) and propidium iodide (PI) to quantify the effects of PMP-2 and human defensin NP-1 (hNP-1) on ΔΨ and permeability, respectively. […] Menadione reconstituted the PMP^R strain ΔΨ to a level equivalent to the PMP^S strain. This was associated with increased depolarization, permeabilization, and killing of the PMP^R strain due to PMP-2. Therefore, the mechanism of PMP-2 action involves rapid, pH-dependent membrane permeabilization with membrane depolarization. These effects were different from hNP-1, or the cationic antibacterial agents protamine or gentamicin.
Flow cytometry can also be used to examine kinetics and mechanisms of the action of the peptides on bacterial membrane integrity and energetics. Peptides which differ in activity or specificity for their ability to depolarize and/or permeabilize microbial membranes can also be compared by analysis of membrane depolarization, and permeabilization. DiOC5 is a charged lipophilic dye which partitions into the cytoplasm, and is dependent on intact Δψ for intracellular retention. Organisms prepared as above are labeled in darkness for 30 minutes at about 20° C. in PBS containing 0.05 μM DiOC5. Organisms are resuspended to a concentration of 5×10^8 CFU/ml in K^+MEM containing an individual peptide, and incubated at 37° C. For flow cytometry, organisms are washed, sonicated, counted, and resuspended in K^+MEM buffer. Reductions in mean DiOC5 fluorescence relative to controls are interpreted to represent loss of DiOCs, indicating membrane depolarization. Positive control cells exposed to valinomycin, as well as control cells not exposed to any peptides, are analyzed for DiOC5 fluorescence in parallel.
Propidium iodide is excluded from cells with normal membrane integrity, but enters cells permealized to molecules ≧2 nm in diameter, and can be stimulated to emit fluorescence at >620 nm. […] Cells are washed in fresh K^+MEM, sonicated, counted, and resuspended in KIMEM buffer containing 20 μM propidium iodide. Control cells exposed to ethanol (positive control for permeabilization) are assessed for propidium iodide uptake in parallel. Increases in mean propidium iodide fluorescence relative to control cells are interpreted to indicate increases in permeability.

Data set [12] relates to Salmonella typhimurium strain 14028. Description: susceptibility of Salmonella typhimurium strains. The format is cell-based. As to conditions: parental strain 14028.
Data set [13] concerns human neutrophils. Description: intracellular killing of S. aureus by neutrophils. It is filed as cell-based. The note with it: 2 hour time point, neutrophils lysed, quantitative culture. The procedure:
(§2) We have initially studied the influence of PMP-2 on in vitro neutrophil phagocytosis and intracellular killing of S. aureus. In our preliminary experiments, a heterologous system was established employing human neutrophils, pooled normal human serum, or crude rabbit PMP-2. Organisms (5×10^7/ml) were pre-exposed to sub-lethal concentrations of serum or PMP-2 for 30 minutes, washed, mixed with neutrophils (20:1), and incubated at 37° C. for 2 hours. We observed a significant increase in phagocytosis of S. aureus when pre-exposed to PMP-2 (mean organisms/neutrophil=11.2), as compared with serum (mean organisms/neutrophil=6.4) or buffer control (mean organisms/neutrophil=3.7; P<0.05 for PMP-2 vs. serum or buffer). To quantify intracellular killing, neutrophils were lysed, and aliquots quantitatively cultured to enumerate surviving S. aureus cells.

Data set [14] has as its system human neutrophils. The data set is described as follows: neutrophil phagocytosis of S. aureus pre-exposed to sub-lethal PMP-2 or serum. It is filed as cell-based. As to conditions: organisms pre-exposed 30 minutes to sub-lethal concentrations, mixed with neutrophils (20:1), 37° C., 2 hours. Here is the method:
as §2

Data set [15] has as its system S. aureus. The data set is described as follows: transmission electron microscopy of bacterial cells after peptide exposure. The format is cell-based. The note with it: 10 μg/ml, as little as 15-60 min. The source says: PMPs and tPMPs target and disrupt microbial cytoplasmic membranes. We have investigated morphologic consequences of rabbit PMP-2 and tPMP-1 exposure to bacterial cells, protoplasts, and lipid bilayers in vitro using transmission electron microscopy (TEM) and biophysical techniques. […] Ultrastructural damage precedes detectable bactericidal and bacteriolytic effects. […] It is important to reiterate that PMPs are likely released into the bloodstream in response to infection, such that they presumably accumulate locally at sites of infection to act directly and indirectly in antimicrobial host defense.

Data set [16] relates to S. aureus strain JB-1. Description: flow cytometry of membrane depolarization (DiOC5), permeabilization (PI) and killing, PMP-resistant strain. The format is cell-based. As to conditions: PMP-resistant strain JB-1 compared with PMP-susceptible strain.
From the text: as §1, with “This was associated with increased depolarization, permeabilization, and killing of the PMP^R strain due to PMP-2. Therefore, the mechanism of PMP-2 action involves rapid, pH-dependent membrane permeabilization with membrane depolarization. These effects were different from hNP-1, or the cationic antibacterial agents protamine or gentamicin.” left out
Flow cytometry can also be used to examine kinetics and mechanisms of the action of the peptides on bacterial membrane integrity and energetics. […] For flow cytometry, organisms are washed, sonicated, counted, and resuspended in K^+MEM buffer. Reductions in mean DiOC5 fluorescence relative to controls are interpreted to represent loss of DiOCs, indicating membrane depolarization. Positive control cells exposed to valinomycin, as well as control cells not exposed to any peptides, are analyzed for DiOC5 fluorescence in parallel.
Propidium iodide is excluded from cells with normal membrane integrity, but enters cells permealized to molecules ≧2 nm in diameter, and can be stimulated to emit fluorescence at >620 nm. […]

For data set [17], the system named is human erythrocytes. It is filed as cell-based. From the text:
(§3) The majority of known mammalian antimicrobial peptides have been localized within leukocytes (e.g., defensins), or secreted onto epithelial surfaces such as intestinal lumen or tracheal epithelium (e.g., cryptdins, tracheal antimicrobial peptide). Prohibitive levels of mammalian cell toxicity have been noted with many of these peptides when they have been tested as antimicrobial therapeutics. In contrast, PMPs exert potent in vitro microbicidal activity against a broad spectrum of bacteria and fungi under physiological conditions that exist in the intravascular space. Several PMPs are released from platelets stimulated with agonists associated with infection. Therefore, in response to tissue injury, PMPs are likely released into the mammalian bloodstream at localized sites of infection. […] These potencies compare favorably to potent conventional antimicrobial agents such as aminoglycosides or amphotericin B.
Four-percent (vol/vol) of washed human erythrocytes (in PBS alone, or in PBS plus 10% heat-inactivated PNHS are incubated with selected peptides ranging in concentration up to 100 times greater than geometric mean MICs. After 24 hours of incubation at 37° C., erythrocyte permeabilization and hemolysis are determined spectrophotometrically. Permeabilization and hemolysis will be compared to buffers alone, and with a triton X-100 control (100% hemolysis).

In data set [18] the test system is vascular endothelial cells. The format is cell-based, human.
From the text: as §3
Endothelial cell injury due to peptides is measured using a standard chromium (^51Cr) release assay, described in Filler, S. G., et al., “Candida stimulates endothelial cell eicosanoid production” J Infect Dis. […] After a predetermined incubation period, the medium is aspirated and the amount of ^51Cr released into the medium is measured by scintillation. […]

Ends that are not written are not given here.

For `C[C@@H]1[C@H](O)[C@@H](C)/C=C/C=C/C=C/C=C/C=C/C=C/C=C/[C@H](O[C@@H]2O[C@H](C)[C@@H](O)[C@H](N)[C@@H]2O)C[C@@H]2O[C@](O)(C[C@@H](O)C[C@@H](O)[C@H](O)CC[C@@H](O)C[C@@H](O)CC(=O)O[C@H]1C)C[C@H](O)[C@H]2C(=O)O` [Amb, amphotericin B], the results for the “Antibiotic Resistance Phenotype” value in data set [1], in [2] and in data set [3] were “S”, “R” and “S”, respectively.
Turning to `OC(Cn1cncn1)(Cn1cncn1)c1ccc(F)cc1F` [Flu, fluconazole], the “Antibiotic Resistance Phenotype” value was “R” in data set [1], “R” in data set [2] and “S” in data set [3].
For `CN[C@H](CC(C)C)C(=O)N[C@H]1C(=O)N[C@@H](CC(N)=O)C(=O)N[C@H]2C(=O)N[C@H]3C(=O)N[C@H](C(=O)N[C@H](C(=O)O)c4cc(O)cc(O)c4-c4cc3ccc4O)[C@H](O)c3ccc(c(Cl)c3)Oc3cc2cc(c3O[C@@H]2O[C@H](CO)[C@@H](O)[C@H](O)[C@H]2O[C@H]2C[C@](C)(N)[C@H](O)[C@H](C)O2)Oc2ccc(cc2Cl)[C@H]1O` [Van, vancomycin], the “Antibiotic Resistance Phenotype” value in data set [4] is given as “S”; in data set [5], “R”; in data set [6], “S”; in data set [7], “S”; in data set [8], “R”.
In the case of ALYKKFKKKLLKSLKRLG [RP-1], the “pH optima for microbicidal activity” value in data set [9] is recorded as 7.2 pH. The “concentration for microbicidal activity” value in data set [9] (in vitro) is “nanomolar concentration”.
As for H-ATKKNGRKLCLDLQAAL-OH [PMP-246-63], the “pH dependence of microbicidal activity” value in data set [10] is “significantly amplified at pH 5.5 as compared to pH 7.2”.
For the molecule hNP-1: human neutrophil defensin NP-1, in [11] (pH 7.2 vs pH 5.5), the “pH dependence of membrane permeabilization” value was “greater at pH 7.2 than at pH 5.5”. Besides, the “membrane permeabilization, PMP-susceptible vs PMP-resistant strain” value in [11] (strains 6850 and JB-1 compared) is “equivalent”. Besides, the susceptibility of strain entry in [12] is “intrinsically resistant”.

B1: PMP-2: 74 residue rabbit platelet microbicidal protein, variant of PMP-1, analogue of rPF-4 (protein, listed as Oryctolagus cuniculus)
chain: SDDPKESEGDLHCVCVKTTSLVRPRHITNLELIKAGGHCPTANLIATKKNGRKLCLDLQAALYKKKIIKKLLES
B1: the “S. aureus cells surviving intracellular killing” value in data set [13] was determined as 23.8%. Also, the “depolarization, permeabilization and killing” value was “rapidly depolarized, permeabilized, and killed” in data set [11] (PMP-susceptible strain 6850); “significantly less” in data set [16]. Besides, the “pH dependence of depolarization, permeabilization and killing” value in [11] (pH 5.5 vs. pH 7.2) is “significantly greater at pH 5.5 vs. pH 7.2”. Further, the “pH dependence of microbicidal activity” value in [10] is “significantly greater microbicidal activity at pH 5.5 vs. 7.2”. Besides, in data set [14], the “phagocytosis of S. aureus, mean organisms/neutrophil” value amounted to 11.2 organisms/neutrophil. Further, the “ultrastructural damage (TEM)” value in data set [15] is reported as “Rapid cytoplasmic membrane disruption, followed by cell wall swelling”. Further, the susceptibility of strain result in [12] is “as susceptible to PMP-2 as hNP-1 hypersusceptible strains 4252s and 5996s”. In addition, in data set [17], the “damage of human erythrocytes” value is reported as “minimal damage”. Also, the “damage of vascular endothelial cells” value in data set [18] was “minimal damage”.
